Patent EP0738149B1 (priority 1994, dated 1995)
Structures can show the parent of a compound that is named as a salt.

Legend:
rats = experiment: Maximal electroshock (MES) model in rats, p.o.;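 on all read-outs here: rat MES model gauging antiepileptic efficacy versus generalized and partial seizures after oral dosing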; type: in vivo; conditions: rats, p.o., Table 15; for ED50: Rattus norvegicus, po, read-out: RATS MES 50
mice = experiment: Maximal electroshock (MES) model in mice, i.p.;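 on all read-outs here: Electroshock-induced convulsion model serving to demonstrate antiepileptic efficacy against generalized and partial seizures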; type: in vivo; conditions: for ED50: Mus musculus, ip; for activity in the MES model in mice: statement in words
in vivo = conditions: rat, in vivo, po
Protocol: (§1) Neurotoxicity of the claimed agents was also assessed in mice (i.p. administration) by the rotorod ataxia test and/or in rats (p.o. administration) by positional sense test and gait stance test. […] The term quantitating the neurotoxicity is the medial neurological toxic dose (TD50), was determined in the above tests.

[1] = Neurotoxicity in mice (rotorod ataxia test), i.p.; conditions: mouse, in vivo, ip
Protocol: as §1

male ICR albino mice = experiment: Hypobaric hypoxia survival time in mice; type: in vivo
Protocol: Dessicator B was disconnected and allowed to equilibrate with room air whilst dessicator A was evacuated to a pressure of 100mmHg. […] The survival time from the moment of induction of hypoxia to the time of cessation of respiration was recorded for each mouse for a maximum of 15 minutes after which time room air was reintroduced to dessicator B. Survivors were monitored for signs of lethargy or vitality.
Effect of drug treatment was assessed as the percent of the survival time of the drug treated group with respect to the saline injected or vehicle injected control group. Control groups were run twice, before and after each experimental group and consisted of 12-16 mice in groups of 4 mice. Each experimental group always consisted of 4 mice to ensure a constant residual volume of oxygen in all tests. The effect of each dose of test drug was determined in duplicate i.e. two groups of 4 mice.
All drugs were administered intra-peritoneally at the dose indicated one hour prior to exposure to hypoxia.

[2] = system: mechanically dissociated neonatal rat cerebellum; experiment: Reversal of NMDA induced cell death in cultures of neonatal rat cerebellum; type: cell-based; conditions: positive control, 0.01 micromoles plus NMDA
Protocol: The cerebellum was aseptically dissociated from 6 or 7-day old rat pups and placed in a 15ml sterile plastic conical tube containing 3ml of Dulbecco's modified Eagle's medium (DMEM) with a high glucose concentration ([…]) and 2mM (v/v) L-glutamine and an antibiotic antimitotic mixture. The cerebella were then dissociated after 20-25 passages through a sterile 13 gauge, 10cm long stainless steel needle attached to a 5ml syringe with an inserted 45 micrometer pore nylon sieve. The dissociated cells were centrifuged at 200g for 5 minutes. The supernatant was discarded and the cells resuspended in medium enriched with 15% (v/v) heat inactivated fetal calf serum. Cell viability was determined by the tryptan blue exclusion test.
Cells were plated at a density of 200/mm^2 on poly-L-lysine coated surfaces. Poly-L-lysine coated glass coverslips were prepared at least one hour in advance of plating by immersing sterile coverslips in sterile distilled water solution containing 15 microgram/ml poly-L-lysine, and washing in sterile water just prior to use. The plated cells were covered with enriched medium and incubated at 37°C in an atmosphere of 5% CO2 in air and 97% humidity. After three days in culture, the media was replaced with media containing the desired test compound. Each test compound was tested in duplicate. Toxic-dose response was determined for each compound.
Four groups were run in each set of experiments; • I. Control, consisting of enriched media alone, • II. N-methyl-D-aspartate (NMDA, 1mM for 3 hours) as the cytotoxic challenge, • III. Test compound plus NMDA, and • IV. Positive control, spermine(0.01 micromoles) plus NMDA.
Nerve cell survival was evaluated by phase contrast microscopy and tryptan blue staining after 24 hours.
Surviving cells in culture are measured relative to control (100%), as described above. Percent protection is the Cell Survival for the test compound minus the NMDA effect. Thus, maximal protection is 100% minus 30% NMDA effect i.e. […]. The Effective Protection was calculated as the percent of the Percent Protection (X) divided by the maximal protection value (e.g. X x 100/70).

[3] = 50 mg/kg ip one hour prior to hypoxia
[4] = 100 mg/kg ip one hour prior to hypoxia

| Structure (SMILES) | RATS MES 50 (rats) | ED50 (mice; Table 15) | TD50 (in vivo) | TD50 ([1]; MICE TD50, mice, Table 15) | further results |
| --- | --- | --- | --- | --- | --- |
| c1ccc(CNC2CCc3ccccc32)cc1 (racemic) [Example 16, (rac)-N-Benzyl-1-aminoindan.HCl] | 50 mg/kg | < 50 mg/kg | > 50 mg/kg | – | – |
| COc1ccc2c(c1)C(N)CC2 (racemic) [Example 25, (rac)-6-Methoxy-1-aminoindan.HCl] | 50 mg/kg | < 100 mg/kg | – | > 100 mg/kg | – |
| CCCC(=O)NC1CCc2ccccc21 (racemic) [Example 11, (rac)-N-Butyryl-1-aminoindan] | – | < 300 mg/kg | > 50 mg/kg | < 300 mg/kg | ED50 (rats): < 50 mg/kg |
| CC(=O)NC1CCc2cccc(C)c21 (racemic) [Example 20, (rac)-7-Methyl-N-acetyl-1-aminoindan] | – | < 100 mg/kg | > 50 mg/kg | – | ED50 (rats): < 50 mg/kg; TD50 ([1]; MICE TD50): 100 mg/kg |
| Cc1ccc2c(c1)CCC2N (racemic) [Example 38, (rae)-5-Methyl-1-aminoindan.HCl] | 50 mg/kg | < 100 mg/kg | > 50 mg/kg | < 100 mg/kg | – |
| COc1ccc2c(c1OC)CCC2N (racemic) [Example 31, (rac)-4,5-Dimethoxy-1-aminoindan.HCl] | – | < 100 mg/kg | > 50 mg/kg | < 100 mg/kg | activity in the MES model in mice (mice): showed activity |
| NC1Cc2ccccc21 (stereo not drawn) [Example 27, 1-Aminobenzocyclobutene.HCl] | <50 mg/kg | < 100 mg/kg | > 50 mg/kg | > 100 mg/kg | – |
| NC1CCc2ccc(O)cc21 (racemic) [Example 34, (rac)-6-Hydroxy-1-aminoindan.HCl] | – | < 300 mg/kg | – | > 300 mg/kg | activity in the MES model in mice (mice): showed activity |
| c1ccc2c(c1)CCC2NC1CCc2ccccc21 (racemic) [Example 43, (rac)-M,N-Di-(1-indanyl)amine.HCl] | <50 mg/kg | < 100 mg/kg | > 50 mg/kg | < 100 mg/kg | – |
| CN1C(=O)CN=C(c2ccccc2)c2cc(Cl)ccc21 [Diazepam, diazepam, reference compound] | – | – | – | – | PROTECTION % OF RESPECTIVE CONTROL (male ICR albino mice; 5 mg/kg ip 0.5 hour prior to hypoxia): 249±166 % OF RESPECTIVE CONTROL; PROTECTION % OF RESPECTIVE CONTROL (male ICR albino mice; 10 mg/kg ip 0.5 hour prior to hypoxia): 430±59 % OF RESPECTIVE CONTROL |
| NCCCNCCCCNCCCN [Spermine, spermine, reference compound] | – | – | – | – | EFFECTIVE PROTECTION [2]: 74%; PERCENT PROTECTION [2]: 52%; SURVIVING CELL IN CULTURE ([2]; relative to control (100%)): 82% |
| CCCC(C)C1(CC)C(=O)NC(=O)NC1=O (stereo not drawn) [Pentobarbitone, sodium pentobarbital, reference compound] | – | – | – | – | PROTECTION % OF RESPECTIVE CONTROL (male ICR albino mice; 20 mg/kg ip 0.5 hour prior to hypoxia): 325±166 % OF RESPECTIVE CONTROL; PROTECTION % OF RESPECTIVE CONTROL (male ICR albino mice; 40 mg/kg ip 0.5 hour prior to hypoxia): 446±10.5 % OF RESPECTIVE CONTROL |
| Cc1cc(C)c2c(c1)C(C)CC2N.Cl (racemic) [Example 41, (rac)-3,5,7-Trimethyl-1-aminoindan.HCl] | – | – | – | – | PROTECTION % OF RESPECTIVE CONTROL (male ICR albino mice; [3]): 187±41 % OF RESPECTIVE CONTROL; PROTECTION % OF RESPECTIVE CONTROL (male ICR albino mice; [4]): 644±316 % OF RESPECTIVE CONTROL |
| NC(=O)CNC1CCCc2ccccc21 (racemic) [Example 4, (rac)-N-(2-Acetamido)-1-aminotetralin] | – | – | – | – | MICE MES ED50 (mice; i.p., Table 15): <100 mg/kg |
| NC1CCc2cccc(O)c21 (racemic) [Example 42, (rac)-7-Hydroxy-1-aminoindan.HCl] | <50 mg/kg | – | > 50 mg/kg | – | PROTECTION % OF RESPECTIVE CONTROL (male ICR albino mice; [3]): 179±170 % OF RESPECTIVE CONTROL; PROTECTION % OF RESPECTIVE CONTROL (male ICR albino mice; [4]): 228±119 % OF RESPECTIVE CONTROL |
| COc1ccc2c(c1OC)CC[C@@H]2N.Cl [Example 30, (S)-4,5-Dimethoxy-1-aminoindan, HCl] | – | – | – | – | PROTECTION % OF RESPECTIVE CONTROL (male ICR albino mice; [3]): 265±284 % OF RESPECTIVE CONTROL; PROTECTION % OF RESPECTIVE CONTROL (male ICR albino mice; [4]): 379±202 % OF RESPECTIVE CONTROL |
| C#CCN[C@@H]1CCc2ccccc21.CS(=O)(=O)O [F, (R)-N-propargyl-1-aminoindan mesylate salt] | – | < 300 mg/kg | – | – | – |
| N[C@H]1CCc2ccc(F)cc21 [K, (S)-6-fluoro-1-aminoindan] | – | 115 mg/kg | – | < 250 mg/kg | activity in the MES model in mice (mice): showed activity; TD50 ([1]; MICE TD50, mice, Table 16): < 250 mg/kg |
